Assay results: patent US20230346808A1, “CANNABINOID FORMULATIONS AND METHODS OF USE” (PreveCeutical Medical Inc., priority 2020, published 2023)
Where “and” joins values, the source holds several entries; their conditions need not be identical. Equal entries are not always repeated.

How the values were obtained:
[1] = tested on: explanted nasal mucosal tissue; assay: Ex vivo deposition into nasal mucosa, vertical Franz-diffusion apparatus; assay type: in vitro ADME, human; conditions: for Deposition of key cannabinoids in µg/g of nasal tissue, Decarboxylated (average of batches D19 & D23): 300 µL decarboxylated sol-gel; for Deposition of key cannabinoids in µg/g of nasal tissue, Decarboxylated (average of batches D19 & D23) / Deposition of key cannabinoids in µg/g of nasal tissue, Native (average of batches N22 & 23): 8 hours post-application, 34° C.; for Deposition of key cannabinoids in µg/g of nasal tissue, Native (average of batches N22 & 23): 300 µL native sol-gel
Experimental: Ex vivo permeation studies were carried out using vertical Franz-diffusion apparatus equipped with temperature-controlled jackets set at 34° C. ± 1° C. Nasal mucosa was taken from middle-turbinate of patients undertaking surgery at Greenslopes Private Hospital. Mucosal tissue was cleaned of blood and bone, then immersed in phosphate-buffered saline (PBS; pH 7.4) at room temperature. The prepared nasal membrane was then sandwiched between donor and receptor cells with the dorsal side of the tissue facing the donor compartment and the ventral side facing the receiver compartment. The receptor cells were filled with 12 mL of PBS and then 300 µL of native or decarboxylated sol-gel samples placed in the donor compartment, ensuring that formulations spread over the entire tissue. To prevent evaporation of the samples, donor cells were covered with Parafilm®. Samples from the receptor cell were taken and volume replaced with PBS at 0, 1, 2, 4, 6 and 8-hours following sol-gel application. Collected tissue samples were then rinsed with MilliQ water after 8 hours, blotted dry with filter paper, wrapped with aluminium foil to protect from light and stored at -80° C. until required for further analysis.
On the day of analysis, the tissue samples were allowed to thaw and were blotted dry using filter paper, cut into small pieces, frozen with liquid nitrogen and ground with a mortar and pestle. Cannabis was extracted from the powdered tissue with ethanol (1 mL) and gently agitated for 12 hours at room temperature. Samples were then transferred to Eppendorf tubes and centrifuged at 10000 rpm for 10 minutes. The supernatant was collected and 100 µL of acetonitrile added to each tube then supernatant collected and again 100 µL was added and stored at -20° C. overnight. The following day each sample was allowed to thaw and centrifuged at 10000 rpm for 10 minutes with supernatant collected and prepared for quantitative analysis using the HPLC method described above in Example 5. Samples of Cannabis sol-gels from native (N22 and N23) and decarboxylated (D19 and D23) extracts were used in this study.
The tissue deposition of cannabinoids was measured per gram of nasal mucosa, with studies based on tissue availability from patients undergoing sinus surgery, and key cannabinoids detected presented in Table 8. The data shown is an average of the 2 native or 2 decarboxylated batches. The amount of sol-gel administered (300 µL) accounts for 3000 µg of cannabinoid content which is a surplus amount (based on micelles, this approximately correlates to the following: for native sol-gels maximum of […] CBDA, 1200 µg THCA; for decarboxylated sol-gels maximum of 960 µg CBDA, 45 µg THCA).

[2] = tested on: human nasal mucosa; conditions: tissue from end of the 5 day study
Experimental: Untreated tissue samples and post-treated tissue samples from the end of the study were preserved from each well for histological evaluation. Each sample was fixed using 4% formaldehyde and stored at 4° C. overnight. On the following day, tissues were dipped in 20% sucrose overnight and embedded in OCT, frozen at -20° C. and cryo-sectioned into slices. Staining was performed with hematoxylin and eosin for 1 minute and stained samples dehydrated in ethanol, defatted in xylene and cover-slipped for histological examination.
Tissues were examined for morphological changes.

[3] = tested on: human nasal mucosa; conditions: 2 µL applied, media harvested daily for five days, n = 3
Experimental: Lactate dehydrogenase (LDH) is an oxidoreductase enzyme found in living cells that is released into the cytoplasm upon cell lysis that is under stressor conditions. LDH is detected via a colourimetric cytotoxicity assay that provides a measure of membrane integrity, with high titres of LDH being an indicator of acute cellular damage/toxicity (Lim et al, International Forum of Allergy & Rhinology, 2012, 2(1): p 63-68). […] Acute toxicity was assessed in freshly explanted human nasal tissue.
Human specimens were dissected, connective tissue, debris or blood were removed utilising a 15 blade scalpel and divided into 2-3 mm x 2-3 mm x 1-2 mm sections. […]
LDH was used as the biomarker and analysed using the CytoTox 96® Non-Radioactive cytotoxicity assay kit following manufacturer instructions (Promega, Madison WI). […] After the end of the study, the absorbance of each sample was obtained at 490 nm using FLUOstar Omega Spectrophotometer (BMG Labtech, Offenburg, Germany). The extracellular LDH level was calculated as changes in the LDH levels of tissues treated with a formulation versus tissues treated with PBS. Statistical differences were analysed by one-way ANOVA followed by Dunnet’s multiple comparison test using GraphPad Prism software (v 7.03).

Row | SMILES | Deposition of key cannabinoids in µg/g of nasal tissue, Decarboxylated (average of batches D19 & D23) [1] | Deposition of key cannabinoids in µg/g of nasal tissue, Native (average of batches N22 & 23) [1] | Higher tissue level from decarboxylated versus native sol-gels ([1]; decarboxylated versus native extract infused sol-gels) | Morphological changes of epithelial and sub epithelial layers of nasal mucosa [2] | Extracellular LDH levels versus PBS negative control [3]
1 | C=C(C)[C@@H]1CCC(C)=C[C@H]1c1c(O)cc(CCCCC)c(C(=O)O)c1O [CBDA, Cannabidiolic acid] | 10.9 µg/g and 10.9 ± 1.81 µg/g | 3.14 µg/g and 3.14 ± 2.98 µg/g | ca. 3 fold |  | 
2 | C=C(C)[C@@H]1CCC(C)=C[C@H]1c1c(O)cc(CCCCC)cc1O [CBD, cannabidiol] | 3.56 µg/g and 3.56 ± 1.67 µg/g | 3.47 µg/g and 3.47 ± 1.53 µg/g |  |  | 
3 | O=S(=O)([O-])[O-].[Zn+2] [ZnSO4, Zinc sulfate] |  |  |  | gross cell and tissue structural damage | significant elevation in LDH levels at day 2
4 | CCCCCc1cc(O)c2c(c1)OC(C)(C)[C@@H]1CCC(C)=C[C@@H]21 [THC, delta-9-tetrahydrocannabinol] | 4.19 µg/g and 4.19 ± 2.20 µg/g | 3.54 µg/g and 3.54 ± 1.74 µg/g |  |  | 
5 | CCCCCc1cc2c(c(O)c1C(=O)O)C1C=C(C)CCC1C(C)(C)O2 (centres unmarked) [THCA, Δ^9-Tetrahydrocannabinolic acid] | 11.3 µg/g and 11.3 ± 10.2 µg/g | 5.73 µg/g and 5.73 ± 0.51 µg/g |  |  | 
